The target of the assay is T1, Recombinant human AOC1/DAO protein (Homo sapiens, UniProt P19801).
T1 construct: purchased R&D systems 8298-AO
T1 sequence (P19801 20-751): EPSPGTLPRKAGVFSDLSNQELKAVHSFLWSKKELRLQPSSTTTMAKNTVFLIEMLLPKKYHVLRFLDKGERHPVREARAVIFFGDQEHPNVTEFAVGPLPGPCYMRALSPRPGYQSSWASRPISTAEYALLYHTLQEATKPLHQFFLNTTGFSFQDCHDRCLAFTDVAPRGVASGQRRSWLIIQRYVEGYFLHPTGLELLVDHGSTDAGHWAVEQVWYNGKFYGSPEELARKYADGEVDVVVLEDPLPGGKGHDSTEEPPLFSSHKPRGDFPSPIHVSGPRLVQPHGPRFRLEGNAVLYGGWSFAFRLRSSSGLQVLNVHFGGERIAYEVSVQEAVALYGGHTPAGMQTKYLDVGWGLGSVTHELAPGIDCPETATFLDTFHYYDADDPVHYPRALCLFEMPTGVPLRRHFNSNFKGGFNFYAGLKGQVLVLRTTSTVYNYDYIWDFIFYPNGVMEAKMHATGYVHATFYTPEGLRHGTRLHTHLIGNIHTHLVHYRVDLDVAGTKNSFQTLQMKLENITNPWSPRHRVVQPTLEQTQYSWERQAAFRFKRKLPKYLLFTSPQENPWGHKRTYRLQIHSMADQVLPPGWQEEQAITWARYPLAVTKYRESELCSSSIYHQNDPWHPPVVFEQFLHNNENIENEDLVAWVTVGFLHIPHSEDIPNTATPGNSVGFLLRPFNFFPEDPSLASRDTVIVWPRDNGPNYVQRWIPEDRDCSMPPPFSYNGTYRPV
Put plainly: Inhibitory activity on AOC1 (Amplex UltraRed). It is filed as biochemical. As to the method:
Recombinant human AOC1/DAO protein was purchased from R&D systems (Cat: 8298-AO). Amplex UltraRed was purchased from Thermo scientific (Cat: A36006). HRP (Cat: P8250) and Putrescine (Cat: V900377) were purchased from Sigma. Enzyme reaction buffer (50 mM HEPES, 120 mM NaCl, 5 mM KCl, 2 mM CaCl2, 1.4 mM MgCl2, 0.001% Tween-20, pH7.4) was prepared. Test compound was dissolved in DMSO and diluted by 3-fold concentration in gradient. The final concentration of test compound in 10 μL reaction system was 100 μM to 5 nM when AOC1 was detected. The content of DMSO in detection reaction was 1%. After the solution of test compound in DMSO was diluted in the enzyme reaction buffer at a volume ratio of 1:25, 10 μL of mixture was added to each well of detection plate. 4× substrate mixture (containing 400 μM Putrescine, 4 U/mL HRP, 4 μM Amplex UltraRed) was prepared in the enzyme reaction buffer, 10 μL of which was added to each well. 20 μL of AOC1 protein diluted in enzyme reaction buffer was added to each well at final concentration 0.4 nM in 40 μL reaction system. Synergy Neo 2 was used to read the plate for detection. The instrument was set at 30° C., 530 nm excitation wavelength, 590 nm emission wavelength. Detection was conducted once every minute for 30 minutes continuously. The enzyme activity was calculated based on the increased signal of each well from the 10th minute to the 30th minute. The value was converted into inhibition rate by the following formula Inhibition rate=(Signalpositive−Signaltest)/(Signalpositive−Signalnegative)×100%
Signalpositive was positive control without test compound. Signalnegative was negative control without test compound and AOC1, and Signaltest was detection value of different compounds at each concentration. IC50 value was calculated by using 4 parameter curve fitting.

Usually pIC50 stands for the IC50 on a negative log10 scale, so that one unit is a factor of ten.

pIC50: −log10 of the molar value.

On to `CC1CN(c2ncc(OC/C(=C/F)CN)cn2)CC(C)N1C1COC1` (centres unmarked) [Example 1, (E)-2-(((2-(3,5-dimethyl-4-(oxbutan-3-yl)piperazin-1-yl)pyrimidin-5-yl)oxo)methyl)-3-fluoroprop-2-en-1-amine], for which the pIC50 was less than 5.00.
For the molecule `COC1CC2CC1CN2c1ncc(OC/C(=C/F)CN)cn1` (centres unmarked) [Example 2], the pIC50 is 5.00 to 7.00.
As to `NC/C(=C\F)COc1cnc(N2CCC3(CC2)COC3)nc1` [Example 3], the pIC50 is 5.00 to 7.00.
In the case of `NC/C(=C\F)COc1cnc(N2CCN(C3COC3)CC2)nc1` [Example 4, (E)-3-fluoro-2-(((2-(4-(oxbutan-3-yl)piperazin-1-yl)pyrimidin-5-yl)oxo)methyl)prop-2-en-1-amine], the pIC50 was less than 5.00.
Turning to `CC1(C)CN(C2COC2)CCN1c1ncc(OC/C(=C/F)CN)cn1` [Example 5], the pIC50 was less than 5.00.
With `NC/C(=C\F)COc1cnc(N2CC3CCC(C2)N3C2COC2)nc1` [Example 6] the figure was less than 5.00; with `N#Cc1cc(OC/C(=C/F)CN)cnc1N1CCN(C2COC2)CC1` [Example 7], less than 5.00; with `NC/C(=C/F)COc1cnc(N2CCN(C3COC3)CC2)nc1` [Example 8], less than 5.00.
With `NC/C(=C\F)COc1cnc(N2CCN(c3cnc(N4CCN(C5COC5)CC4)nc3)CC2)nc1` [Example 9], the pIC50 was 5.00 to 7.00.
Take `CC1(C)CN(c2ncc(OC/C(=C/F)CN)cn2)CCN1C1COC1` [Example 10]: the pIC50 was less than 5.00.
Take `COC1CC2CCC(C1)N2c1ncc(OC/C(=C/F)CN)cn1` (centres unmarked) [Example 12]: the pIC50 was less than 5.00.
